The source of these data is paper PMC6406907, “A H2AX–CARP-1 Interaction Regulates Apoptosis Signaling Following DNA Damage” (Cancers, 2019).

What all share (assay type): cell-based, human
Test [1] deals with MDA-MB-468 cells expressing EGFP or EGFP-CARP-1 (636–650). In words: Flow cytometric analysis of apoptosis, MDA-MB-468 sublines. Particulars: 10 μM, 24 h, EGFP vs EGFP-CARP-1 (636–650)-expressing MDA-MB-468. A general note: Flow cytometry measures light scatter and fluorescence of single cells or particles in a stream.
The test system of test [2] is CARP-1, phospho-JNK1/2, phospho-H2AX. In words: Western blot of CARP-1, phospho-JNK1/2, γH2AX in UOK 262. Particulars: 10 μM, UOK 262, WB. The protocol: Logarithmically growing cells were either untreated or treated with different agents for various time periods. The cells were lysed to prepare protein extracts. IP was carried out by incubating approximately 1 mg of the protein lysate with appropriate antibodies. The immunoprecipitates were then analyzed by SDS-PAGE, followed by WB with respective, interacting protein. For Gst-pulldown, Gst-H2AX or various His-TAT-HA-tagged CARP-1 peptides were generated in Escherichia coli (E. coli) BL21 cells essentially as described by us previously. Briefly, the competent E. coli BL-21 (DE3) pLysS cells were transformed separately with various recombinant pGEX-4T-1 or pTAT-HA constructs. The transformed cells were then subjected to selection by combined presence of ampicillin and chloramphenicol; various isolates for each transformation were obtained and bacterial lysates were characterized for expression of fusion peptides. Cells from each isolate were grown in 4 mL of LB medium containing ampicillin only until the optical density (OD)600 reached 0.4–0.8. […]
Here, we utilized human TNBC MDA-MB-468 and human cervical cancer HeLa cells to conduct an MTT-based dose-response analysis using Adriamycin and CFM compounds. […] The cell lysates from the control, untreated, and treated cells were analyzed by WB for expression of CARP-1, phospho-JNK1/2, phospho-H2AX, and poly ADP ribose polymerase (PARP) proteins. […]
On the technique in general: Immunoblotting shows a protein as a band on a membrane.

The next test relates to CARP-1 and γH2AX. Briefly: WB/IF of CARP-1 and γH2AX in HCC827. Particulars: for CARP-1 and γH2AX increase after knock-down of CARP-1: HCC827, CARP-1 knock-down; for CARP-1 levels and γH2AX: HCC827, WB / IF. As to the method:
Logarithmically growing cells were either untreated or treated with different agents for various time periods. The cells were lysed to prepare protein extracts. IP was carried out by incubating approximately 1 mg of the protein lysate with appropriate antibodies. The immunoprecipitates were then analyzed by SDS-PAGE, followed by WB with respective, interacting protein. For Gst-pulldown, Gst-H2AX or various His-TAT-HA-tagged CARP-1 peptides were generated in Escherichia coli (E. coli) BL21 cells essentially as described by us previously. Briefly, the competent E. coli BL-21 (DE3) pLysS cells were transformed separately with various recombinant pGEX-4T-1 or pTAT-HA constructs. The transformed cells were then subjected to selection by combined presence of ampicillin and chloramphenicol; various isolates for each transformation were obtained and bacterial lysates were characterized for expression of fusion peptides. Cells from each isolate were grown in 4 mL of LB medium containing ampicillin only until the optical density (OD)600 reached 0.4–0.8. Expression of fusion peptides was induced over 2–4 h incubation periods after Isopropyl β-D-1-thiogalactopyranoside (IPTG) addition. The cells were harvested, and pellets were stored at −80 °C overnight. The cell pellets were then lysed in 100–400 μL of bacterial protein extraction reagent (BPER) buffer (Thermo Scientific, Waltham, MA, USA, Cat# 78243) containing 2 μL/mL of 10 units/μL DNAse I (Boehringer Mannheim, Fremont, CA, USA, Cat # 776–785), and supernatant checked for expression of respective fusion peptides by WB. Following confirmation of expression, 5–20 μL of lysate expressing Gst fusion protein was first incubated with 20 μL of precleared glutathione sepharose in a final volume of 100 μL at 4 °C for 2 h with constant rotation. The sepharose beads were spun at 800× g for 2 min, and the pellet was washed 2–4 times with 100–200 μL of RIPA buffer (20 mM Tris-HCl (pH 7.5), 150 mM NaCl, 1 mM Na2EDTA, 1 mM EGTA, 1% NP-40, 1% sodium deoxycholate, 2.5 mM sodium pyrophosphate, 1 mM β-glycerophosphate, 1 mM Na3VO4, 1 µg/mL leupeptin) with 0.5 M NaCl. The beads were spun again as above, and mixed with 5–20 μL of E. coli lysate expressing His-TAT-HA CARP-1 peptides. The reactions were incubated further at 4 °C for 2 h with constant rotation. The peptide-bound sepharose beads were pelleted and washed with 100–200 μL of RIPA buffer with 0.1 M NaCl for 2–4 washes. In some cases, additional washes with 0.05 M NaCl buffer were carried out. After the final wash, the sepharose–protein complexes were spun, and then re-suspended in SDS loading buffer for electrophoresis on 12–15% SDS PAGE, followed by WB with appropriate antibodies.
Cells were plated onto chamber slides one day before treatment. […]

As to `COc1cccc2c1C(=O)c1c(O)c3c(c(O)c1C2=O)C[C@@](O)(C(=O)CO)C[C@@H]3O[C@H]1C[C@H](N)[C@H](O)[C@H](C)O1` [Adriamycin, doxorubicin, reference compound], the cells undergoing apoptosis result in test [1] is listed as “generally higher percentage of EGFP-expressing cells undergoing apoptosis”. In test [2], the “expression of CARP-1, phospho-JNK1/2, phospho-H2AX” value was “stimulated expression of CARP-1, phospho-JNK1/2, and phospho-H2AX in a time-dependent manner”. In the test with CARP-1 and γH2AX, the “CARP-1 and γH2AX increase after knock-down of CARP-1” value is “abrogated CARP-1 and γH2AX increase”; the “CARP-1 levels and γH2AX” value was “robust increase in CARP-1 levels and γH2AX”.
Take `O=C1N(Cc2ccccc2Cl)c2ccccc2C12NN=C(c1cccc(Cl)c1)S2` (centres unmarked) [CFM-4.16]: the cells undergoing apoptosis entry in test [1] is “generally higher percentage of EGFP-expressing cells undergoing apoptosis”. In addition, the “expression of CARP-1, phospho-JNK1/2, phospho-H2AX” value in test [2] was “stimulated expression of CARP-1, phospho-JNK1/2, and phospho-H2AX in a time-dependent manner”. Further, in the test on CARP-1 and γH2AX, the “CARP-1 and γH2AX increase after knock-down of CARP-1” value was “abrogated CARP-1 and γH2AX increase”; the “CARP-1 levels and γH2AX” value is “robust increase in CARP-1 levels and γH2AX”.
